Laboratory results: patent US10138236B2, “Factor xia-inhibiting pyridobenzazepine and pyridobenzazocine derivatives” (BAYER PHARMA AKTIENGESELLSCHAFT, priority 2014, dated 2018)

Tests used:
human factor XIa = human factor XIa (Homo sapiens (Human), UniProt P03951); assay: Measurement of FXIa inhibition; assay type: biochemical; conditions: factor XIa from Kordia, substrate Boc-Glu(OBzl)-Ala-Arg-AMC, fluorescence
Protocol: a.1) Measurement of FXIa Inhibition
(§1) The factor XIa inhibition of the substances according to the invention is determined using a biochemical test system which utilizes the reaction of a peptidic factor XIa substrate to determine the enzymatic activity of human factor XIa. Here, factor XIa cleaves from the peptic factor XIa substrate the C-terminal aminomethylcoumarin (AMC), the fluorescence of which is measured. The determinations are carried out in microtitre plates.
1 μl of the diluted substance solutions is placed into each of the wells of white microtitre plates from Greiner (384 wells). […] After 15 min of incubation, the enzyme reaction is started by addition of 20 μl of the factor XIa substrate Boc-Glu(OBzl)-Ala-Arg-AMC dissolved in assay buffer (10 μM in assay buffer) from Bachem, the mixture is incubated at room temperature (22° C.) for 30 min and fluorescence is then measured (excitation: 360 nm, emission: 460 nm). The measured emissions of the test batches with test substance are compared to those of control batches without test substance (only dimethyl sulphoxide instead of test substance in dimethyl sulphoxide), and IC50 values are calculated from the concentration/activity relationships.

human plasma kallikrein = human plasma kallikrein (Homo sapiens (Human), UniProt P03952); assay: Determination of the plasma kallikrein activity; assay type: biochemical; conditions: plasma kallikrein from Kordia, substrate H-Pro-Phe-Arg-AMC, fluorescence
Chain of human plasma kallikrein (P03952 391-638): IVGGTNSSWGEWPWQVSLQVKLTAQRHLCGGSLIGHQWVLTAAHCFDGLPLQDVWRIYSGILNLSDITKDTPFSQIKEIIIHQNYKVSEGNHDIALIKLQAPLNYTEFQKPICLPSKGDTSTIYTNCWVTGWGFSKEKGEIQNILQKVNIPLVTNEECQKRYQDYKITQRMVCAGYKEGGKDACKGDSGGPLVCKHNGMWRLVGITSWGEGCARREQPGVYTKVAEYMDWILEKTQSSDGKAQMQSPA
Chain of human plasma kallikrein (P03952 20-390 partner): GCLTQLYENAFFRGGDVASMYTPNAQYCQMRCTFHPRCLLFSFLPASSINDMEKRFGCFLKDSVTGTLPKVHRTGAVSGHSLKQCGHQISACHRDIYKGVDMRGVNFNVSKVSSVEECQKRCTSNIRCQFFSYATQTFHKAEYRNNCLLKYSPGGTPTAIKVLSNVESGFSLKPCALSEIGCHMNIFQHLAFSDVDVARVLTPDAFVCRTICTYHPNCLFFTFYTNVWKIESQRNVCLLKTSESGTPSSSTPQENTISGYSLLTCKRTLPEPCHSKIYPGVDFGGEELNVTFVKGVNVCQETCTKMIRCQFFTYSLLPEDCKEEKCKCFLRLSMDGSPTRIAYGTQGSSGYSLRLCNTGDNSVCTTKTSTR
Protocol: a.5) Determination of the Plasma Kallikrein Activity
as §1, with “To determine the plasma kallikrein” for “The factor XIa”, “invention,” for “invention is determined using”, “system is used” for “system”, “plasma kallikrein” for “factor XIa”, “plasma kallikrein.” for “factor XIa.”
1 μl of the diluted substance solutions is placed into each of the wells of white microtitre plates from Greiner (384 wells). 20 μl of assay buffer (50 mM Tris/HCl pH 7.4; 100 mM sodium chloride solution; 5 mM of calcium chloride solution; 0.1% of bovine serum albumin) and 20 μl of plasma kallikrein from Kordia (0.6 nM in assay buffer) are then added successively. After 15 min of incubation, the enzyme reaction is started by addition of 20 μl of the substrate H-Pro-Phe-Arg-AMC dissolved in assay buffer (10 μM in assay buffer) from Bachem, the mixture is incubated at room temperature (22° C.) for 30 min and fluorescence is then measured (excitation: 360 nm, emission: 460 nm). The measured emissions of the test batches with test substance are compared to those of control batches without test substance (only dimethyl sulphoxide instead of test substance in dimethyl sulphoxide), and IC50 values are calculated from the concentration/activity relationships.

Chain of human factor XIa (P03951 388-625): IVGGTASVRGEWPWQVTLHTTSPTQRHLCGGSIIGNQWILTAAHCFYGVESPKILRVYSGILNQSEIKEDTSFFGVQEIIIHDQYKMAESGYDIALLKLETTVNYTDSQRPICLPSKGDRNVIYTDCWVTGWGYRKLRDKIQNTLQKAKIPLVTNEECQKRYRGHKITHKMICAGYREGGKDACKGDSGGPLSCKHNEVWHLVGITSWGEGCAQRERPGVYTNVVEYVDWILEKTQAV
Chain of human factor XIa (P03951 19-387 partner): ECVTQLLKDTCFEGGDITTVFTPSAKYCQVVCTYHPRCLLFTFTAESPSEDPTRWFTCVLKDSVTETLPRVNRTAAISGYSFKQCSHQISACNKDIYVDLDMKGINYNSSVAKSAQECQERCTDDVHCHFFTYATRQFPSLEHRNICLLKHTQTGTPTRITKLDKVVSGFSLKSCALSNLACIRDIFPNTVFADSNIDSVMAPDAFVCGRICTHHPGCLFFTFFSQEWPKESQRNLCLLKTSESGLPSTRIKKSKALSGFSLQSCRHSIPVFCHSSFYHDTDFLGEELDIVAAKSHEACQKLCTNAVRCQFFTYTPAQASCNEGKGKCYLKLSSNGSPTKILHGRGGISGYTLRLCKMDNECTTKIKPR

Structure (SMILES) | IC50 (human factor XIa) [nM] | IC50 (human plasma kallikrein) [nM]
CCC(C(=O)Nc1ccc(-c2noc(=O)[nH]2)cc1)n1cc2c(cc1=O)-c1cc(Cl)ccc1CC1(CC1)NC2=O (stereo not shown) [Example 11, 2-(11′-Chloro-2′,5′-dioxo-2′,5′,6′,8′-tetrahydro-3′H-spiro[cyclopropane-1,7′-pyrido[3,4-e][3]benzazocine]-3′-yl)-N-[4-(5-oxo-4,5-dihydro-1,2,4-oxadiazol-3-yl)phenyl]butanamide] | 16 | 1700
COCCC(C(=O)Nc1ccc(C(=O)O)s1)n1cc2c(cc1=O)-c1cc(Cl)ccc1CC1(CC1)NC2=O (stereo not shown) [Example 22, 5-{[2-(11′-Chloro-2′,5′-dioxo-2′,5′,6′,8′-tetrahydro-3′H-spiro[cyclopropane-1,7′-pyrido[3,4-e][3]benzazocine]-3′-yl)-4-methoxybutanoyl]amino}thiophene-2-carboxylic acid] | 4 | 340
O=C(O)c1ccc(NC(=O)C(Cc2ccccc2)n2cc3c(cc2=O)-c2cc(Cl)ccc2CC2(CC2)NC3=O)cc1 (stereo not shown) [Example 28, 4-{[2-(11′-Chloro-2′,5′-dioxo-2′,5′,6′,8′-tetrahydro-3′H-spiro[cyclopropane-1,7′-pyrido[3,4-e][3]benzazocine]-3′-yl)-3-phenylpropanoyl]amino}benzoic acid] | 1.8 | 55
COCCC(C(=O)Nc1ccc(C(N)=O)nc1)n1cc2c(cc1=O)-c1cc(Cl)ccc1CC1(CC1)NC2=O (stereo not shown) [Example 21, 5-{[2-(11′-Chloro-2′,5′-dioxo-2′,5′,6′,8′-tetrahydro-3′H-spiro[cyclopropane-1,7′-pyrido[3,4-e][3]benzazocine]-3′-yl)-4-methoxybutanoyl]amino}pyridine-2-carboxamide] | 34 | 910
O=C(Cn1cc2c(cc1=O)-c1cc(Cl)ccc1CCNC2=O)Nc1ccc(-c2noc(=O)[nH]2)cc1 [Example 5, 2-(11-Chloro-2,5-dioxo-5,6,7,8-tetrahydropyrido[3,4-e][3]benzazocin-3(2H)-yl)-N-[4-(5-oxo-4,5-dihydro-1,2,4-oxadiazol-3-yl)phenyl]acetamide] | 350 | 8300
CC(C)CC(C(=O)Nc1ccc(C(=O)O)cc1)n1cc2c(cc1=O)-c1cc(Cl)ccc1CCNC2=O (stereo not shown) [Example 8, 4-{[2-(11-Chloro-2,5-dioxo-5,6,7,8-tetrahydropyrido[3,4-e][3]benzazocin-3(2H)-yl)-4-methylpentanoyl]amino}benzoic acid] | 36 | 680
CCC(C(=O)Nc1ccc(C(=O)O)cc1)n1cc2c(cc1=O)-c1cc(Cl)ccc1C1(CC1)NC2=O (stereo not shown) [Example 3, 4-{[2-(10′-Chloro-2′,5′-dioxo-5′,6′-dihydrospiro[cyclopropane-1,7′-pyrido[3,4-d][2]benzazepine]-3′(2′H)-yl)butanoyl]amino}benzoic acid] | 180 | > 50000
Cn1cc2cc(NC(=O)C(Cc3ccccc3)n3cc4c(cc3=O)-c3cc(Cl)ccc3CC3(CC3)NC4=O)ccc2n1 (stereo not shown) [Example 30, 2-(11′-Chloro-2′,5′-dioxo-2′,5′,6′,8′-tetrahydro-3′H-spiro[cyclopropane-1,7′-pyrido[3,4-e][3]benzazocine]-3′-yl)-N-(2-methyl-2H-indazol-5-yl)-3-phenylpropanamide] | 4.5 | 45
O=C(Cn1cc2c(cc1=O)-c1cc(Cl)ccc1CCNC2=O)Nc1ccc(C(=O)O)cc1 [Example 4, 4-{[(11-Chloro-2,5-dioxo-5,6,7,8-tetrahydropyrido[3,4-e][3]benzazocin-3(2H)-yl)acetyl]amino}benzoic acid] | 720 | 18000

Continued by falling IC50 (human factor XIa), values first:

IC50 (human factor XIa) [nM] | IC50 (human plasma kallikrein) [nM] | Structure (SMILES)
140 | 3800 | CC(C)CC(C(=O)Nc1ccc(-c2noc(=O)[nH]2)cc1)n1cc2c(cc1=O)-c1cc(Cl)ccc1CCNC2=O (stereo not shown) [Example 9, 2-(11-Chloro-2,5-dioxo-5,6,7,8-tetrahydropyrido[3,4-e][3]benzazocin-3(2H)-yl)-4-methyl-N-[4-(5-oxo-4,5-dihydro-1,2,4-oxadiazol-3-yl)phenyl]pentanamide]
100 | 3900 | COCCC(C(=O)Nc1cc(C(=O)O)cs1)n1cc2c(cc1=O)-c1cc(Cl)ccc1CC1(CC1)NC2=O (stereo not shown) [Example 23, 5-{[2-(11′-Chloro-2′,5′-dioxo-2′,5′,6′,8′-tetrahydro-3′H-spiro[cyclopropane-1,7′-pyrido[3,4-e][3]benzazocine]-3′-yl)-4-methoxybutanoyl]amino}thiophene-3-carboxylic acid]
47 | 4500 | COCCC(C(=O)Nc1ccc(C(=O)O)nc1)n1cc2c(cc1=O)-c1cc(Cl)ccc1CC1(CC1)NC2=O (stereo not shown) [Example 20, 5-{[2-(11′-Chloro-2′,5′-dioxo-2′,5′,6′,8′-tetrahydro-3′H-spiro[cyclopropane-1,7′-pyrido[3,4-e][3]benzazocine]-3′-yl)-4-methoxybutanoyl]amino}pyridine-2-carboxylic acid]
44 | 1200 | COCCC(C(=O)Nc1ccc2nccn2c1)n1cc2c(cc1=O)-c1cc(Cl)ccc1CC1(CC1)NC2=O (stereo not shown) [Example 17, 2-(11′-Chloro-2′,5′-dioxo-2′,5′,6′,8′-tetrahydro-3′H-spiro[cyclopropane-1,7′-pyrido[3,4-e][3]benzazocine]-3′-yl)-N-(imidazo[1,2-a]pyridin-6-yl)-4-methoxybutanamide]
35 | 800 | COCCC(C(=O)Nc1csc(C(=O)O)c1)n1cc2c(cc1=O)-c1cc(Cl)ccc1CC1(CC1)NC2=O (stereo not shown) [Example 24, 4-{[2-(11′-Chloro-2′,5′-dioxo-2′,5′,6′,8′-tetrahydro-3′H-spiro[cyclopropane-1,7′-pyrido[3,4-e][3]benzazocine]-3′-yl)-4-methoxybutanoyl]amino}thiophene-2-carboxylic acid]
18 | 230 | COCCC(C(=O)Nc1ccc2[nH]c(=O)[nH]c2c1)n1cc2c(cc1=O)-c1cc(Cl)ccc1CC1(CC1)NC2=O (stereo not shown) [Example 14, 2-(11′-Chloro-2′,5′-dioxo-2′,5′,6′,8′-tetrahydro-3′H-spiro[cyclopropane-1,7′-pyrido[3,4-e][3]benzazocine]-3′-yl)-4-methoxy-N-(2-oxo-2,3-dihydro-1H-benzimidazol-5-yl)butanamide]
11 | 210 | COCCC(C(=O)Nc1ccn2nccc2c1)n1cc2c(cc1=O)-c1cc(Cl)ccc1CC1(CC1)NC2=O (stereo not shown) [Example 16, 2-(11′-Chloro-2′,5′-dioxo-2′,5′,6′,8′-tetrahydro-3′H-spiro[cyclopropane-1,7′-pyrido[3,4-e][3]benzazocine]-3′-yl)-4-methoxy-N-(pyrazolo[1,5-a]pyridin-5-yl)butanamide]
7.7 | 2100 | CCC(C(=O)Nc1ccc(C(=O)O)cc1)n1cc2c(cc1=O)-c1cc(Cl)ccc1CC1(CC1)NC2=O (stereo not shown) [Example 10, 4-{[2-(11′-Chloro-2′,5′-dioxo-2′,5′,6′,8′-tetrahydro-3′H-spiro[cyclopropane-1,7′-pyrido[3,4-e][3]benzazocine]-3′-yl)butanoyl]amino}benzoic acid]
2.5 | 370 | CO[C@H]1CC[C@H](CC(C(=O)Nc2ccc(C(=O)O)cc2)n2cc3c(cc2=O)-c2cc(Cl)ccc2CC2(CC2)NC3=O)CC1 (stereo partly drawn) [Example 25, 4-{[2-(11′-Chloro-2′,5′-dioxo-2′,5′,6′,8′-tetrahydro-3′H-spiro[cyclopropane-1,7′-pyrido[3,4-e][3]benzazocine]-3′-yl)-3-(trans-4-methoxycyclohexyl)propanoyl]amino}benzoic acid]
1.9 | 390 | COCCC(C(=O)Nc1ccc(C(=O)O)cc1)n1cc2c(cc1=O)-c1cc(Cl)ccc1CC1(CC1)NC2=O (stereo not shown) [Example 12, 4-{[2-(11′-Chloro-2′,5′-dioxo-2′,5′,6′,8′-tetrahydro-3′H-spiro[cyclopropane-1,7′-pyrido[3,4-e][3]benzazocine]-3′-yl)-4-methoxybutanoyl]amino}benzoic acid]
1.2 | 97 | COCCC(C(=O)Nc1ccc(C(=O)O)cc1)n1cc2c(cc1=O)-c1cc(Cl)ccc1CC(CF)NC2=O (stereo not shown) [Example 33, 4-({2-[11-Chloro-7-(fluoromethyl)-2,5-dioxo-5,6,7,8-tetrahydropyrido[3,4-e][3]benzazocin-3(2H)-yl]-4-methoxybutanoyl}amino)benzoic acid]
